Earlier results in US20230049319A1, “CANNABINOID-COMPRISING COSMETIC COMPOSITIONS” (THIS WORKS PRODUCTS LIMITED, priority 2020, published 2023).

Columns and labels:
[1] = system: chronic inflammation and pain; conditions: mice and rats
[2] = in vivo
anxiety = conditions: in vivo

Compound	reducing anxiety, compared with trazodone hydrochloride (anxiety)	other results
C=C(C)[C@@H]1CCC(C)=C[C@H]1c1c(O)cc(CCCCC)cc1O [CBD, cannabidiol]		chronic inflammation and pain [1]: substantially reduce
C=CC(C)(O)CCC=C(C)C (stereo not shown) [Linalool]		dose shown to be safe [2]: ≤ 120 mg
C=C[C@](C)(O)CCC=C(C)C [R-(−)-linalool]	as effective as the trazodone hydrochloride	
C=C[C@@](C)(O)CCC=C(C)C [S-(+)-linalool]	as effective as the trazodone hydrochloride	
